According to patent US20250276983A1, “COMPOUNDS AND METHODS FOR MODULATING HER2” (IAMBIC THERAPEUTICS, INC., priority 2022, published 2025):
Like-named read-outs stand apart in the source and are kept apart here.

Assays:
Assay type in all cases: cell-based
BaF3_HER2YVMA cells = assay: Cell growth inhibition assay, BaF3_HER2YVMA; conditions: read-out: HER2-YVMA IC50 (nM), cell growth inhibition
BaF3_HER2WT cells = assay: Cell growth inhibition assay, BaF3_HER2WT; conditions: 3 days treatment, CellTiterGlo 2.0, read-out: HER2 WT IC50 (nM), cell growth inhibition
BaF3_EGFRWT cells = assay: Cell growth inhibition assay, BaF3_EGFRWT; conditions: 80 ng/mL recombinant human EGF, 3 days treatment, CellTiterGlo 2.0, read-out: EGFR WT IC50 (nM), cell growth inhibition
[1] = 72 h, BaF3_HER2YVMA cells, 3 days treatment, CellTiterGlo 2.0
[2] = BaF3_HER2YVMA cells, 3 days treatment, CellTiterGlo 2.0

| Structure (SMILES) | IC50 (BaF3_HER2YVMA cells; [1]) [nM] | IC50 (BaF3_HER2WT cells; 72 h) [nM] | IC50 (BaF3_EGFRWT cells; 72 h) [nM] | IC50 (BaF3_HER2YVMA cells; [2]) [nM] | IC50 (BaF3_HER2WT cells) [nM] | IC50 (BaF3_EGFRWT cells) [nM] | IC50 (BaF3_HER2YVMA cells; 72 h) [nM] |
| --- | --- | --- | --- | --- | --- | --- | --- |
| CNC/C=C/C(=O)N1CC(c2ccn3ncnc(Nc4ccc(Oc5ccc6c(c5)ncn6C)c(C)c4)c23)C1 [Example 153, (E)-1-(3-(4-((3-methyl-4-((1-methyl-1H-benzo[d]imidazol-5-yl)oxy)phenyl)amino)pyrrolo[2,1-f][1,2,4]triazin-5-yl)azetidin-1-yl)-4-(methylamino)but-2-en-1-one] | 1500 to 5000 | 1500 to 5000 | 1500 to 5000 | – | – | – | – |
| C=CC(=O)N(C)C1CCN(c2ccn3ncnc(Nc4ccc(Oc5ccn6ncnc6c5)c(C)c4)c23)C1 (stereo not drawn) [Example 72, N-(1-(4-((4-([1,2,4]triazolo[1,5-a]pyridin-7-yloxy)-3-methylphenyl)amino)pyrrolo[2,1-f][1,2,4]triazin-5-yl)pyrrolidin-3-yl)-N-methylacrylamide] | < 200 | < 200 | 1500 to 5000 | – | – | – | – |
| Cc1cc(Nc2ncnn3ccc(C4CN(C(=O)/C=C/CN5CCC(F)(F)C5)C4)c23)ccc1Oc1ccn2ncnc2c1 [Example 84, (E)-1-(3-(4-((4-([1,2,4]triazolo[1,5-a]pyridin-7-yloxy)-3-methylphenyl)amino)pyrrolo[2,1-f][1,2,4]triazin-5-yl)azetidin-1-yl)-4-(3,3-difluoropyrrolidin-1-yl)but-2-en-1-one] | 200 to 500 | < 200 | 1500 to 5000 | – | – | – | – |
| Cc1cc(Nc2ncnn3ccc(N4CCN(C(=O)C(F)Cl)CC(F)(F)C4)c23)ccc1Oc1ccn2ncnc2c1 (stereo not drawn) [Example 63, 1-(4-(4-((4-([1,2,4]triazolo[1,5-a]pyridin-7-yloxy)-3-methylphenyl)amino)pyrrolo[2,1-f][1,2,4]triazin-5-yl)-6,6-difluoro-1,4-diazepan-1-yl)-2-chloro-2-fluoroethan-1-one] | 500 to 1500 | 500 to 1500 | 1500 to 5000 | – | – | – | – |
| Cc1cc(Nc2ncnn3ccc(N4C5CCC4CN(C(=O)/C=C/CN(C)C)C5)c23)ccc1Oc1ccn2ncnc2c1 [Example 45, (E)-1-(8-(4-((4-([1,2,4]triazolo[1,5-a]pyridin-7-yloxy)-3-methylphenyl)amino)pyrrolo[2,1-f][1,2,4]triazin-5-yl)-3,8-diazabicyclo[3.2.1]octan-3-yl)-4-(dimethylamino)but-2-en-1-one] | < 200 | < 200 | 1500 to 5000 | – | – | – | – |
| Cc1cc(Nc2ncnn3ccc(C4CN(C(=O)/C=C/CN5CC(F)C5)C4)c23)ccc1Oc1ccc2c(c1)ncn2C [Example 161, (E)-4-(3-fluoroazetidin-1-yl)-1-(3-(4-((3-methyl-4-((1-methyl-1H-benzo[d]imidazol-5-yl)oxy)phenyl)amino)pyrrolo[2,1-f][1,2,4]triazin-5-yl)azetidin-1-yl)but-2-en-1-one] | < 200 | < 200 | 1500 to 5000 | – | – | – | – |
| Cc1cc(Nc2ncnn3ccc(C4CN(C(=O)/C=C/CN(C)C)C4)c23)ccc1Oc1cc2ncnn2cn1 [Example 158, (E)-1-(3-(4-((4-([1,2,4]triazolo[1,5-c]pyrimidin-7-yloxy)-3-methylphenyl)amino)pyrrolo[2,1-f][1,2,4]triazin-5-yl)azetidin-1-yl)-4-(dimethylamino)but-2-en-1-one] | < 200 | < 200 | 500 to 1500 | – | – | – | – |
| C=C(CN(C)C)C(=O)N1C2CCC1CC(c1ccn3ncnc(Nc4ccc(Oc5ccn6ncnc6c5)c(C)c4)c13)C2 (single isomer, unassigned) [Examples 126 and 127, second eluting isomer, 1-(3-(4-((4-([1,2,4]triazolo[1,5-a]pyridin-7-yloxy)-3-methylphenyl)amino)pyrrolo[2,1-f][1,2,4]triazin-5-yl)-8-azabicyclo[3.2.1]octan-8-yl)-2-((dimethylamino)methyl)prop-2-en-1-one] | – | – | – | 500 to 1500 | < 200 | 1500 to 5000 | – |
| C=C(C#N)C(=O)N1CCC(c2ccn3ncnc(Nc4ccc(Oc5ccn6ncnc6c5)c(C)c4)c23)CC1 [Example 27, 2-(4-(4-((4-([1,2,4]triazolo[1,5-a]pyridin-7-yloxy)-3-methylphenyl)amino)pyrrolo[2,1-f][1,2,4]triazin-5-yl)piperidine-1-carbonyl)acrylonitrile] | – | 500 to 1500 | 1500 to 5000 | – | – | – | 1500 to 5000 |
| Cc1cc(Nc2ncnn3ccc(N4CCCN(C(=O)/C=C/CN5CCOCC5)CC4)c23)ccc1Oc1ccn2ncnc2c1 [Example 80, (E)-1-(4-(4-((4-([1,2,4]triazolo[1,5-a]pyridin-7-yloxy)-3-methylphenyl)amino)pyrrolo[2,1-f][1,2,4]triazin-5-yl)-1,4-diazepan-1-yl)-4-morpholinobut-2-en-1-one] | 1500 to 5000 | < 200 | 1500 to 5000 | – | – | – | – |
| Cc1cc(Nc2ncnn3ccc(C4=CCN(C(=O)/C=C/CN(C)C)C4)c23)ccc1Oc1ccn2ncnc2c1 [Example 29, (E)-1-(3-(4-((4-([1,2,4]triazolo[1,5-a]pyridin-7-yloxy)-3-methylphenyl)amino)pyrrolo[2,1-f][1,2,4]triazin-5-yl)-2,5-dihydro-1H-pyrrol-1-yl)-4-(dimethylamino)but-2-en-1-one acetate] | 1500 to 5000 | < 200 | 1500 to 5000 | – | – | – | – |

Second part, led by results:

| IC50 (BaF3_HER2YVMA cells; [1]) [nM] | IC50 (BaF3_HER2WT cells; 72 h) [nM] | IC50 (BaF3_EGFRWT cells; 72 h) [nM] | IC50 (BaF3_HER2YVMA cells; [2]) [nM] | Structure (SMILES) | IC50 (BaF3_HER2WT cells) [nM] | IC50 (BaF3_EGFRWT cells) [nM] | IC50 (BaF3_HER2YVMA cells; 72 h) [nM] |
| --- | --- | --- | --- | --- | --- | --- | --- |
| < 200 | < 200 | 1500 to 5000 | – | Cc1cc(Nc2ncnn3ccc(C4CCN(C(=O)/C=C/CN5CCCCC5)CC4)c23)ccc1Oc1ccn2ncnc2c1 [Example 57, (E)-1-(4-(4-((4-([1,2,4]triazolo[1,5-a]pyridin-7-yloxy)-3-methylphenyl)amino)pyrrolo[2,1-f][1,2,4]triazin-5-yl)piperidin-1-yl)-4-(piperidin-1-yl)but-2-en-1-one] | – | – | – |
| 1500 to 5000 | 500 to 1500 | 1500 to 5000 | – | Cc1cc(Nc2ncnn3cnc(C4CCN(C(=O)/C=C/CN(C)C)CC4)c23)ccc1Oc1ccn2ncnc2c1 [Example 88, (E)-1-(4-(4-((4-([1,2,4]triazolo[1,5-a]pyridin-7-yloxy)-3-methylphenyl)amino)imidazo[5,1-f][1,2,4]triazin-5-yl)piperidin-1-yl)-4-(dimethylamino)but-2-en-1-one] | – | – | – |
| – | – | – | 1500 to 5000 | Cc1cc(Nc2ncnn3ccc(C4CCCN(C(=O)/C=C/CN(C)C)C4)c23)ccc1Oc1ccn2ncnc2c1 (single isomer, unassigned) [Examples 107 and 108, second eluting isomer, (E)-1-(3-(4-((4-([1,2,4]triazolo[1,5-a]pyridin-7-yloxy)-3-methylphenyl)amino)pyrrolo[2,1-f][1,2,4]triazin-5-yl)piperidin-1-yl)-4-(dimethylamino)but-2-en-1-one] | 500 to 1500 | 1500 to 5000 | – |
| 1500 to 5000 | 500 to 1500 | 1500 to 5000 | – | Cc1cc(Nc2ncnn3ccc(N4CCN(C(=O)/C=C/CN(C)C)CC4=O)c23)ccc1Oc1ccn2ncnc2c1 [Example 54, (E)-1-(4-((4-([1,2,4]triazolo[1,5-a]pyridin-7-yloxy)-3-methylphenyl)amino)pyrrolo[2,1-f][1,2,4]triazin-5-yl)-4-(4-(dimethylamino)but-2-enoyl)piperazin-2-one] | – | – | – |
| – | < 200 | 1500 to 5000 | 500 to 1500 | C=C(CN(C)C)C(=O)N1CCCC(c2ccn3ncnc(Nc4ccc(Oc5ccn6ncnc6c5)c(C)c4)c23)CC1 (single isomer, unassigned) [Examples 143 and 144, first eluting isomer, 1-(4-(4-((4-([1,2,4]triazolo[1,5-a]pyridin-7-yloxy)-3-methylphenyl)amino)pyrrolo[2,1-f][1,2,4]triazin-5-yl)azepan-1-yl)-2-((dimethylamino)methyl)prop-2-en-1-one] | – | – | – |
